Measured values from patent US9505742B2, “3,4-dihydro-2H-isoquinoline-1-one and 2,3-dihydro-isoindol-1-one compounds” (Hoffmann-La Roche Inc., priority 2013, dated 2016).

Assays:
human CYP11B2 = target: T1, human CYP11B2 (Homo sapiens, UniProt P19099); assay: G-402 cellular enzyme assay, human CYP11B2 (aldosterone release, HTRF); type: cell-based; settings: G-402 cells expressing human CYP11B2; 1 μM Deoxycorticosterone
T1 construct: The expression plasmids contains the ORF for either human/cyno CYP11B1 or CYP11B2; expressed in transfected cells
T1 sequence (P19099 25-503): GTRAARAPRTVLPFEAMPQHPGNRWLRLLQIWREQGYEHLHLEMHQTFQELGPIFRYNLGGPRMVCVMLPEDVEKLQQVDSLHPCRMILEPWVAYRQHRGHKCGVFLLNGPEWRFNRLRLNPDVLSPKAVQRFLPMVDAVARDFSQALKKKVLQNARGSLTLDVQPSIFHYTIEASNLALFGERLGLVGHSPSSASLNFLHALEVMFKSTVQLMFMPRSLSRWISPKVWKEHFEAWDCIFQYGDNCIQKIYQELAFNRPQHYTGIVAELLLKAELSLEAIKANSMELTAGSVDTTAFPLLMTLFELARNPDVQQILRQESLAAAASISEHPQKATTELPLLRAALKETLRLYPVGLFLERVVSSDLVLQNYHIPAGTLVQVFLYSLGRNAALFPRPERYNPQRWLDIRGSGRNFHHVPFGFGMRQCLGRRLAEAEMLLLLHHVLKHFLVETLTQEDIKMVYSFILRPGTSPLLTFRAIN
Excerpt: (§1) Herein we identified the use of the G-402 cell line as a host cell to ectopically express (transiently or stably) enzymes of the CYP11 family. Specifically we developed stable G-402 cells expressing ectopically human CYP11B1, human CYP11B2, human CYP11A1, cynmolgus CYP11B1 or cynomolgus CYP11B2 enzyme activity. Importantly the identified cell line G-402 expresses co-factors (adrenodoxin and adrenodoxin reductase) important for the activity of the CYP11 family and no relevant enzyme activity of the CYP11 family (in comparison to H295R cells) was detected in these cells. Therefore the G-402 cell line is uniquely suited as a host cell for the ectopic expression of enzymes from the CYP11 family. G-402 cells can be obtained from ATCC (CRL-1440) and were originally derived from a renal leiomyoblastoma.
(§2) The expression plasmids contains the ORF for either human/cyno CYP11B1 or CYP11B2 under the control of a suitable promoter (CMV-promoter) and a suitable resistance marker (neomycin). Using standard techniques the expression plasmid is transfected into G-402 cells and these cells are then selected for expressing the given resistance markers. Individual cell-clones are then selected and assessed for displaying the desired enzymatic activity using 11-Deoxycorticosterone (Cyp11B2) or 11-Deoxycortisol (Cyp11B) as a substrate.
(§3) G-402 cells expressing CYP11 constructs were established as described above and maintained in McCoy's 5a Medium Modified, ATCC Catalog No. 30-2007 containing 10% FCS and 400 μg/ml G418 (Geneticin) at 37° C. under an atmosphere of 5% CO2/95% air. Cellular enzyme assays were performed in DMEM/F12 medium containing 2.5% charcoal treated FCS and appropriate concentration of substrate (0.3-10 uM 11-Deoxycorticosterone, 11-Deoxycortisol or Corticosterone). For assaying enzymatic activity, cells were plated onto 96 well plates and incubated for 16 h. An aliquot of the supernatant is then transferred and analyzed for the concentration of the expected product (Aldosterone for CYP11B2; Cortisol for CYP11B1). The concentrations of these steroids can be determined using HTRF assays from CisBio analyzing either Aldosterone or Cortisol.
(§4) Inhibition of the release of produced steroids can be used as a measure of the respective enzyme inhibition by test compounds added during the cellular enzyme assay. The dose dependent inhibition of enzymatic activity by a compound is calculated by means of plotting added inhibitor concentrations (x-axes) vs. measured steroid/product level (y-axes). The inhibition is then calculated by fitting the following 4-parameter sigmoidal function (Morgan-Mercer-Flodin (MMF) model) to the raw data points using the least squares method:
(§5) [formula] wherein, A is the maximum y value, B is the EC50 factor determined using XLFit, C is the minimum y value and D is the slope value.
(§6) EC50 values for compounds claimed herein were tested with the G402-based assay system described. Cyp11B2 enzyme activity was tested in presence of 1 μM Deoxycorticosterone and variable amounts of inhibitors; Cyp11B1 enzyme activity was tested in presence of 1 μM Deoxycortisol and variable amounts of inhibitors.

human CYP11B1 = target: T2, human CYP11B1 (Homo sapiens, UniProt P15538); assay: G-402 cellular enzyme assay, human CYP11B1 (cortisol release, HTRF); type: cell-based; settings: G-402 cells expressing human CYP11B1; 1 μM Deoxycortisol
T2 construct: The expression plasmids contains the ORF for either human/cyno CYP11B1 or CYP11B2; expressed in transfected cells
T2 sequence (P15538 25-503): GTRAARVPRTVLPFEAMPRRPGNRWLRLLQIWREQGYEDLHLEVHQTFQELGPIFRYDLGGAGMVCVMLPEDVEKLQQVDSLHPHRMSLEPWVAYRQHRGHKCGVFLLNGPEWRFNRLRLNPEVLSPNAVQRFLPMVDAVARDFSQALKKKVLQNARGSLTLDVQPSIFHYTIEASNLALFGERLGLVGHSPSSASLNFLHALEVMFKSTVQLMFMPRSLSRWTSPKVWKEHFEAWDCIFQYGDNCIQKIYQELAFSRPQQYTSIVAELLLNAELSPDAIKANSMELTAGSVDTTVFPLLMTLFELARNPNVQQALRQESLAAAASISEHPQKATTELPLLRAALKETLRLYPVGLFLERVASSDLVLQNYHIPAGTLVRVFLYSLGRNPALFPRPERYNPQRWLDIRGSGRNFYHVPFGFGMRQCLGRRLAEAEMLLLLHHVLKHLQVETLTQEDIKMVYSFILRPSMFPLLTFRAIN
Excerpt: as §1, §2, §3, §4, §5, §6

| Structure (SMILES) | EC50 (human CYP11B2) [nM] | EC50 (human CYP11B1) [nM] |
| --- | --- | --- |
| CC1(C)c2cc(Cl)ccc2C(=O)N1c1cncc(C2CCCN(S(C)(=O)=O)C2)c1 (single isomer, unassigned; (+)) [Example 5, (+)-5-chloro-3,3-dimethyl-2-[5-[(3R or 3S)-1-methylsulfonylpiperidin-3-yl]pyridin-3-yl]isoindol-1-one] | 5 | 213 |
| CC(C)S(=O)(=O)N1CCC(c2cncc(N3C(=O)c4ccc(Cl)cc4C3(C)C)c2)C1 (single isomer, unassigned; (-)) [Example 11, (−)-5-chloro-3,3-dimethyl-2-[5-[(3S or 3R)-1-propan-2-ylsulfonylpyrrolidin-3-yl]pyridin-3-yl]isoindol-1-one] | 7 | 601 |
| CCCS(=O)(=O)N1CCC(c2cncc(N3C(=O)c4ccc(Cl)cc4C3(C)C)c2)CC1 [Example 15, 5-Chloro-3,3-dimethyl-2-[5-(1-propylsulfonylpiperidin-4-yl)pyridin-3-yl]isoindol-1-one] | 1 | 239 |
| CC(C)S(=O)(=O)N1CCC(c2cncc(N3C(=O)c4ccc(Cl)cc4C3(C)C)c2)C1 (single isomer, unassigned; (+)) [Example 10, (+)-5-chloro-3,3-dimethyl-2-[5-[(3R or 3S)-1-propan-2-ylsulfonylpyrrolidin-3-yl]pyridin-3-yl]isoindol-1-one] | 2 | 93 |
| CC1(C)c2cc(Cl)ccc2C(=O)N1c1cncc(C2CCN(S(=O)(=O)C3CC3)C2)c1 (single isomer, unassigned; (-)) [Example 13, (−)-5-chloro-2-[5-[(3S or 3R)-1-cyclopropylsulfonylpyrrolidin-3-yl]pyridin-3-yl]-3,3-dimethylisoindol-1-one] | 19 | 957 |
| CC1(C)c2cc(Cl)ccc2C(=O)N1c1cncc(C2CCN(C(=O)c3ccncc3Cl)CC2)c1 [Example 19, 5-Chloro-2-[5-[1-(3-chloropyridine-4-carbonyl)piperidin-4-yl]pyridin-3-yl]-3,3-dimethylisoindol-1-one] | 21 | 1340 |
| CCS(=O)(=O)N1CCCC(c2cncc(N3C(=O)c4ccc(Cl)cc4C3(C)C)c2)C1 (stereo not shown) [Example 4, 5-Chloro-2-[5-(1-ethylsulfonylpiperidin-3-yl)pyridin-3-yl]-3,3-dimethylisoindol-1-one] | 6 | 605 |
| CCCS(=O)(=O)N1CCC(c2cncc(N3C(=O)c4ccc(Cl)cc4C3(C)C)c2)C1 (single isomer, unassigned; (-)) [Example 9, (−)-5-chloro-3,3-dimethyl-2-[5-[(3S or 3R)-1-propylsulfonylpyrrolidin-3-yl]pyridin-3-yl]isoindol-1-one] | 14 | 800 |
| CCC(=O)N1CCC(c2cncc(N3C(=O)c4ccc(Cl)cc4C3(C)C)c2)CC1 [Example 1, 5-Chloro-3,3-dimethyl-2-[5-(1-propanoylpiperidin-4-yl)pyridin-3-yl]isoindol-1-one] | 5 | 238 |
| Cc1ccncc1C(=O)N1CCC(c2cncc(N3C(=O)c4ccc(Cl)cc4C3(C)C)c2)CC1 [Example 18, 5-Chloro-3,3-dimethyl-2-[5-[1-(4-methylpyridine-3-carbonyl)piperidin-4-yl]pyridin-3-yl]isoindol-1-one] | 16 | 219 |

The remaining lines, values ahead:

| EC50 (human CYP11B2) [nM] | EC50 (human CYP11B1) [nM] | Structure (SMILES) |
| --- | --- | --- |
| 2 | 433 | CCS(=O)(=O)N1CCC(c2cncc(N3C(=O)c4ccc(Cl)cc4[C@H]3C)c2)CC1 (single isomer, unassigned) [Example 24, (+)-(3R or 3S)-5-chloro-2-[5-(1-ethylsulfonylpiperidin-4-yl)pyridin-3-yl]-3-methyl-3H-isoindol-1-one] |
| 11 | 1620 | CC(C)S(=O)(=O)N1CCC(c2cncc(N3C(=O)c4ccc(Cl)cc4[C@H]3C)c2)CC1 (single isomer, unassigned) [Example 26, (+)-(3R or 3S)-5-chloro-3-methyl-2-[5-(1-propan-2-ylsulfonylpiperidin-4-yl)pyridin-3-yl]-3H-isoindol-1-one] |
| 8 | 325 | CC1(C)c2cc(Cl)ccc2C(=O)N1c1cncc(C2CN(S(=O)(=O)C3CC3)C2)c1 [Example 35, 5-Chloro-2-[5-(1-cyclopropylsulfonylazetidin-3-yl)pyridin-3-yl]-3,3-dimethylisoindol-1-one] |
| 151 | 1320 | COc1ccc2c(n1)C(C)(C)N(c1cncc(C3CCN(C(=O)c4cnccc4C)CC3)c1)C2=O [Example 49, 2-Methoxy-7,7-dimethyl-6-[5-[1-(4-methylpyridine-3-carbonyl)-4-piperidyl]-3-pyridyl]pyrrolo[3,4-b]pyridin-5-one] |
| 97 | 949 | Cc1ccncc1C(=O)N1CCC(c2cncc(N3Cc4cc(Cl)ccc4C3=O)c2)CC1 [Example 23, 5-Chloro-2-[5-[1-(4-methylpyridine-3-carbonyl)piperidin-4-yl]pyridin-3-yl]-3H-isoindol-1-one] |
| 1 | 523 | CC(C)S(=O)(=O)N1CCC(c2cncc(N3C(=O)c4ccc(Cl)cc4[C@@H]3C)c2)CC1 (single isomer, unassigned) [Example 27, (−)-(3S or 3R)-5-chloro-3-methyl-2-[5-(1-propan-2-ylsulfonylpiperidin-4-yl)pyridin-3-yl]-3H-isoindol-1-one] |
| 2 | 98 | CCCS(=O)(=O)N1CCC(F)(c2cncc(N3C(=O)c4ccc(Cl)cc4C3(C)C)c2)CC1 [Example 37, 5-Chloro-2-[5-(4-fluoro-1-propylsulfonyl-4-piperidyl)-3-pyridyl]-3,3-dimethyl-isoindolin-1-one] |
| 7 | 616 | CCS(=O)(=O)N1CC(c2cncc(N3C(=O)c4ccc(Cl)cc4C3(C)C)c2)C1 [Example 32, 5-Chloro-2-[5-(1-ethylsulfonylazetidin-3-yl)pyridin-3-yl]-3,3-dimethylisoindol-1-one] |
| 35 | 986 | COc1ccc2c(n1)C(C)(C)N(c1cncc(C3(F)CCN(C(=O)c4cnn(C)c4)CC3)c1)C2=O [Example 41, 6-[5-[4-Fluoro-1-(1-methylpyrazole-4-carbonyl)-4-piperidyl]-3-pyridyl]-2-methoxy-7,7-dimethyl-pyrrolo[3,4-b]pyridin-5-one] |
| 9 | 117 | Cc1ccncc1C(=O)N1CCC(c2cncc(N3C(=O)c4ccc(Cl)cc4[C@@H]3C)c2)CC1 (single isomer, unassigned) [Example 29, (−)-(3S or 3R)-5-chloro-3-methyl-2-[5-[1-(4-methylpyridine-3-carbonyl)piperidin-4-yl]pyridin-3-yl]-3H-isoindol-1-one] |
